Patent US20250161338A1, “Compounds for Anti-aging Intervention” (AGENCY FOR SCIENCE, TECHNOLOGY AND RESEARCH, priority 2022, published 2025)
Where a name gives a salt, the structure may show the parent alone. Residues, ends and D or L forms follow the SMILES beside them.

Assays:
[1] = tested on: prototrophic yeast strain (CEN.PK113-7D); assay: Propidium iodide fluorescence-based CLS method in yeast (incl. high-throughput screening); assay type: cell-based, Saccharomyces cerevisiae; conditions: concentration tested 100 μM; for Yeast CLS increase: Yes/No call of the screen; for PI intensity: solvent DMSO or water, chronological age point Day 7 (72 h growth = Day 1), lower = more survival;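 on PI intensity: untreated reference is eight DMSO and water control wells per plate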
Experimental: Yeast strain was recovered from frozen glycerol stock at 30° C. on YPD agar medium. Yeast was left to propagate in SD medium overnight at 30° C. with shaking at 220 revolutions per minute (rpm). Cells propagated overnight were diluted to a starting optical density at 600 nm (OD600) of approximately 0.2 in fresh SD medium to begin the chronological lifespan (CLS) experiments.
(§1) CLS experiments were performed in 96-well plates with 200 μL yeast culture. Cellular inoculums were transferred into 96-well plates containing serially double-diluted concentrations (0 to 10 nM) of rapamycin. Cellular inoculum was transferred into 96-well plates containing serially double-diluted concentrations (0 to 8 mM) of 2,5-anhydro-D-mannitol, D-fructose, D-mannitol, D-maltose, and D-sorbitol in SD medium. Cells were incubated at 30° C., and the growth was measured at different time points. […] Cell survival was quantified at various age time points by three different approaches: (i) PI fluorescence-based method, (ii) outgrowth in YPD liquid medium, and (iii) spotting assay (FIG. 1).
Yeast cells (40 μL) from different age time points were transferred into a second 96-well plate (different to the 96-well plate in which the CLS analysis as outlined above was performed). Cells were washed and incubated in 100 μL 1×phosphate buffered saline (PBS) with propidium iodide (PI) (5 μg/mL) for 15 minutes in the dark. Positive and negative control samples were included for quantitative analysis. Positive control (cells boiled at 100° C. for 15 minutes) was PI-stained and processed in the same 96-well plate. Samples without PI-stained cells served as the negative control. After incubation, cells were washed and resuspended in 100 μL PBS. The fluorescence reading of the samples (excitation and emission wavelengths at 535 nm and 617 nm, respectively) and OD600 were measured with a microplate reader (BioTek, Winooski, Vermont, United States). The fluorescence intensity of each sample was normalized with OD600. The background fluorescence signal of the unstained negative sample was subtracted from the normalized fluorescence intensity of each sample. The obtained fluorescence intensity of the positive control (boiled dead cells) was considered 0% cell survival. Cell death was validated by allowing the boiled dead cells to grow in medium. Cell survival at different age time points of samples were calculated by normalizing the fluorescence intensity with positive control sample (boiled cells).
High-throughput screening of various chemicals was tested using the same protocol for the propidium iodide fluorescence-based method as described above. The prototrophic yeast strain (CEN.PK113-7D) was grown in the synthetic defined medium with different chemical reagents at their respective single testing concentration (Table 1) in addition to eight replicates of DMSO and water controls in 96-well plates at 30° C.

[2] = tested on: prototrophic yeast strain (CEN.PK113-7D); assay: Yeast outgrowth in YPD liquid medium (CLS of aged cells); assay type: cell-based, Saccharomyces cerevisiae; conditions: concentration tested 100 μM; OD600 nm after 24 h in YPD at 30° C.; age point day 14
Experimental: as §1
Outgrowth (OD600) of aged cells was measured by the microplate reader. Quantification of cell survival for each age point was determined as relative to Day 1 (considered 100% cell survival). This quantification was performed by using the formula,
[formula] • where OutgrowthDay n refers to the OD600 nm absorbance reading recorded on a specific day, OutgrowthDay 1 refers to the OD600 nm absorbance reading recorded on the first day where 100% cell survival is assumed.
The CLS of the aged cells was further determined by the yeast outgrowth in YPD liquid medium method as described above. […] At chronological age point day 14, 3-μL of culture were transferred to a second 96-well plate containing 200 μL YPD medium.

CC1OC(OC2C(=O)c3c(O)cc(O)cc3OC2c2ccc(O)cc2)C(O)C(O)C1O (stereo not shown) [Engeletin]
Yeast CLS increase [1]: Yes
PI intensity [1]: 37,144.4
Outgrowth [2]: 0.9

COc1cc2c(cc1OC)-c1cc3ccc4c(c3c[n+]1CC2)OCO4.[Cl-] [Epiberberine (chloride)]
Yeast CLS increase [1]: Yes
PI intensity [1]: 38,027.2
Outgrowth [2]: 1.3

O=c1ccc2cc(O[C@@H]3O[C@H](CO)[C@@H](O)[C@H](O)[C@H]3O)c(O)cc2o1 [Esculin]
Yeast CLS increase [1]: No
PI intensity [1]: 72,890.7
Outgrowth [2]: 0.1

CCOC(=O)c1ccc(O)cc1 [Ethylparaben]
Yeast CLS increase [1]: No
PI intensity [1]: 52,097.7
Outgrowth [2]: 0.1

C=C1[C@H](OC(=O)c2ccccc2)C[C@H]2[C@@H](/C=C(\C)C(=O)[C@@]3(OC(C)=O)C[C@H](C)[C@H](OC(=O)c4ccccc4)[C@@H]3[C@H]1OC(C)=O)C2(C)C [Euphorbia Factor L2]
Yeast CLS increase [1]: No
PI intensity [1]: 68,871.8
Outgrowth [2]: 0.1

Cc1cc2nc3c(=O)[nH]c(=O)nc-3n(C[C@H](O)[C@H](O)[C@H](O)COP(=O)(O)OP(=O)(O)OC[C@H]3O[C@@H](n4cnc5c(N)ncnc54)[C@H](O)[C@@H]3O)c2cc1C [Flavin adenine dinucleotide (disodium salt)]
Yeast CLS increase [1]: No
PI intensity [1]: 59,508.7
Outgrowth [2]: 0.2

NC=O [Formamide]
Yeast CLS increase [1]: No
PI intensity [1]: 64,135.2
Outgrowth [2]: 0.1

O=C1NC(c2ccccc2)(c2ccccc2)C(=O)N1COP(=O)(O)O [Fosphenytoin (disodium), reference compound]
Yeast CLS increase [1]: No
PI intensity [1]: 61,860.0
Outgrowth [2]: 0.1

COC(=O)C1=CO[C@@H](O[C@@H]2O[C@H](CO)[C@@H](O)[C@H](O)[C@H]2O)[C@H]2[C@@H]1C=C[C@@]2(O)CO [Gardenoside]
Yeast CLS increase [1]: No
PI intensity [1]: 65,525.5
Outgrowth [2]: 0.1

C=C[C@@H]1C2=CCOC(=O)C2=CO[C@H]1O[C@@H]1O[C@H](CO)[C@@H](O)[C@H](O)[C@H]1O [Gentiopicroside]
Yeast CLS increase [1]: No
PI intensity [1]: 59,804.7
Outgrowth [2]: 0.1

CC(C)=CCC/C(C)=C/CO [Geraniol]
Yeast CLS increase [1]: No
PI intensity [1]: 76,340.1
Outgrowth [2]: 0.1

Cl.N[C@H]1C(O)O[C@H](CO)[C@@H](O)[C@@H]1O (stereo partly shown) [Glucosamine (hydrochloride)]
Yeast CLS increase [1]: No
PI intensity [1]: 65,905.5
Outgrowth [2]: 0.1

CC(CCC(=O)NCC(=O)O)C1CCC2C3CCC4CC(O)CCC4(C)C3CC(O)C12C (stereo not shown) [Glycodeoxycholic acid (monohydrate)]
Yeast CLS increase [1]: No
PI intensity ([1]; (monohydrate)): 73,459.3
Outgrowth [2]: 0.1

C[C@H](CCC(=O)NCC(=O)O)[C@H]1CC[C@H]2[C@@H]3[C@@H](O)C[C@@H]4C[C@H](O)CC[C@]4(C)[C@H]3CC[C@]12C [Glycoursodeoxycholic acid]
Yeast CLS increase [1]: No
PI intensity [1]: 64,205.2
Outgrowth [2]: 0.1

Cc1cc2c(C(C)C)c(O)c(O)c(C=O)c2c(O)c1-c1c(C)cc2c(C(C)C)c(O)c(O)c(C=O)c2c1O [Gossypol]
PI intensity [1]: 65,220.1
Outgrowth [2]: 0.1

Cc1ccc(C(C)C)cc2c(C)ccc1-2 [Guaiazulene]
Yeast CLS increase [1]: No
PI intensity [1]: 58,776.1
Outgrowth [2]: 0.1

C/C=C1\C(=O)C[C@H]2[C@@H]3CCC4=CC(=O)CC[C@]4(C)[C@H]3CC[C@]12C [Guggulsterone]
Yeast CLS increase [1]: No
PI intensity [1]: 63,881.9
Outgrowth [2]: 0.1

C[C@@H]1O[C@@H](O[C@H]2[C@H](O[C@H]3CC[C@@]4(C)[C@@H](CC[C@]5(C)[C@@H]4CC=C4[C@@H]6CC(C)(C)CC[C@]6(C(=O)O[C@@H]6O[C@H](CO[C@@H]7O[C@H](CO)[C@@H](O[C@@H]8O[C@@H](C)[C@H](O)[C@@H](O)[C@H]8O)[C@H](O)[C@H]7O)[C@@H](O)[C@H](O)[C@H]6O)CC[C@]45C)[C@]3(C)CO)OC[C@H](O)[C@@H]2O)[C@H](O)[C@H](O)[C@H]1O [Hederacoside C]
Yeast CLS increase [1]: No
PI intensity [1]: 73,515.9
Outgrowth [2]: 0.1

CC1(C)CC[C@]2(C(=O)O)CC[C@]3(C)C(=CC[C@@H]4[C@@]5(C)CC[C@H](O)[C@@](C)(CO)[C@@H]5CC[C@]43C)[C@@H]2C1 [Hederagenin]
Yeast CLS increase [1]: No
PI intensity [1]: 73,281.0
Outgrowth [2]: 0.1

CC[C@H](C)[C@@H]1NC(=O)[C@@H]2CCCN2C(=O)[C@@H]2CCCN2C(=O)[C@@H]2CCCN2C(=O)[C@H](CC(C)C)NC(=O)CNC(=O)CNC(=O)[C@H](Cc2ccccc2)NC1=O [Heterophyllin B] (cyclo(FGGLPPPI))
Yeast CLS increase [1]: No
PI intensity [1]: 61,587.8
Outgrowth [2]: 0.2

O=c1cc(O)cc(/C=C/c2ccc(O)c(O)c2)o1 [Hispidin]
Yeast CLS increase [1]: No
PI intensity [1]: 67,098.8
Outgrowth [2]: 0.1

COc1cc(CC(=O)O)ccc1O [Homovanillic acid]
Yeast CLS increase [1]: No
PI intensity [1]: 65,033.1
Outgrowth [2]: 0.1

CCCCCCCCCCCCCCCC(=O)NCCO [Impulsin]
Yeast CLS increase [1]: No
PI intensity [1]: 71,903.7
Outgrowth [2]: 0.1

C=C1C(=O)O[C@@H]2C[C@@]3(C)CCCC(=C)[C@@H]3C[C@H]12 [Isoalantolactone]
Yeast CLS increase [1]: No
PI intensity [1]: 94,566.8
Outgrowth [2]: 0.1

O=C(/C=C/c1ccc(O)c(O)c1)O[C@@H]1C[C@](O)(C(=O)O)C[C@@H](OC(=O)/C=C/c2ccc(O)c(O)c2)[C@H]1O [Isochlorogenic acid A]
Yeast CLS increase [1]: No
PI intensity [1]: 63,157.7
Outgrowth [2]: 0.1

Nc1nccc(=O)[nH]1 [Isocytosine]
Yeast CLS increase [1]: No
PI intensity [1]: 68,813.6
Outgrowth [2]: 0.1

O=C(O)[C@H]1O[C@@H](Oc2c(-c3ccc(O)cc3)oc3cc(O)cc(O)c3c2=O)[C@H](O)[C@@H](O)[C@@H]1O [Kaempferol 3-O-β-D-glucuronide]
Yeast CLS increase [1]: No
PI intensity [1]: 62,874.6
Outgrowth [2]: 0.1

Cl.N[C@@H](CS)C(=O)O.O [L-Cysteine (hydrochloride hydrate)]
Yeast CLS increase [1]: No
PI intensity [1]: 69,216.4
Outgrowth [2]: 0.1

N[C@@H](CCO)C(=O)O [L-Homoserine]
Yeast CLS increase [1]: No
PI intensity [1]: 60,922.1
Outgrowth [2]: 0.1

Nc1ccccc1C(=O)C[C@H](N)C(=O)O [L-Kynurenine]
Yeast CLS increase [1]: No
PI intensity [1]: 72,824.1
Outgrowth [2]: 0.1

Cl.NCCC[C@H](N)C(=O)O [L-Ornithine (hydrochloride)]
Yeast CLS increase [1]: No
Outgrowth [2]: 0.1

C[Se]CC[C@H](N)C(=O)O [L-SelenoMethionine]
Yeast CLS increase [1]: Yes
PI intensity [1]: 31,240.0
Outgrowth [2]: 1.2

Br.CCN1C[C@]2(OC(=O)c3ccccc3NC(C)=O)CC[C@H](OC)[C@@]34[C@@H]2C[C@@H]([C@@H]13)[C@@]1(O)C[C@H](OC)[C@H]2C[C@@H]4[C@]1(O)[C@H]2OC [Lappaconitine (hydrobromide)]
Yeast CLS increase [1]: No
PI intensity [1]: 76,000.0
Outgrowth [2]: 0.1
